The subject of the assay is P388 leukemia ip, CD2F1 mice, survival T/C. In words: NCI In Vivo Anticancer Drug Screen. Data for tumor model P388 Leukemia (intraperitoneal) in CD2F1 (CDF1) mice. Conditions: endpoint: median survival time, higher = longer survival. In outline:
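Mice carrying the transplanted tumor received test compound or vehicle. Survival was recorded in each group, and the value is the treated-group measurement divided by that of the vehicle-treated control group.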

Where [1] appears, read: dose: 50.0 mg/kg/injection, schedule: Q01DX005 (ip), vehicle: saline with Tween-80.
The mark [2] stands for this setting: dose: 100.0 mg/kg/injection, schedule: Q01DX005 (ip), vehicle: saline with Tween-80.
Where [3] appears, read: dose: 100.0 mg/kg/injection, schedule: Q04DX003 (ip), vehicle: saline with Tween-80.
Setting [4] is: dose: 100.0 mg/kg/injection, schedule: Q04DX002 (ip), vehicle: water.
Where [5] appears, read: dose: 50.0 mg/kg/injection, schedule: Q01DX005 (ip), vehicle: Klucel (hydroxypropylcellulose) (HPC).
Setting [6] is: dose: 100.0 mg/kg/injection, schedule: Q01DX005 (ip), vehicle: Klucel (hydroxypropylcellulose) (HPC).
[7] abbreviates: dose: 200.0 mg/kg/injection, schedule: Q01DX005 (ip), vehicle: Klucel (hydroxypropylcellulose) (HPC).
Setting [8] is: dose: 200.0 mg/kg/injection, schedule: Q01DX005 (ip), vehicle: saline with Tween-80.
Where [9] appears, read: dose: 60.0 mg/kg/injection, schedule: Q01DX005 (ip), vehicle: saline with Tween-80.
Setting [10] is: dose: 120.0 mg/kg/injection, schedule: Q01DX005 (ip), vehicle: saline with Tween-80.
Where [11] appears, read: dose: 240.0 mg/kg/injection, schedule: Q01DX005 (ip), vehicle: saline with Tween-80.

Values joined by “and” are separate entries in the source; they are usually repeats but may differ in a detail not shown here. Equal values may be shown once. Inconclusive results and toxic doses are left out.

For the compound `CN(C)CCC[Si]1(C)c2ccccc2CCc2ccccc21`, the T/C runs as follows: (dose: 25.0 mg/kg/injection, schedule: Q04DX003 (ip), vehicle: saline) 104 % of control; (dose: 50.0 mg/kg/injection, schedule: Q04DX003 (ip), vehicle: saline) 105 % of control; (dose: 100.0 mg/kg/injection, schedule: Q04DX003 (ip), vehicle: saline) 109 % of control.

For `O=C1C=C(c2ccccc2)S(=O)(=O)c2ccc(O)cc21`, the T/C reads like this: under setting [1], 121 % of control; under setting [2], 110 % of control.

`CC(C)C1CC2CCC3C(C)(C(=O)O)CCCC3(C)C2CC1CO` (stereo unspecified): the T/C under setting [3] was 100 % of control and the T/C (dose: 200.0 mg/kg/injection, schedule: Q04DX003 (ip), vehicle: saline with Tween-80) was 91 % of control.

With `CCN(CC)CCCNC(=O)Cc1ccc2c(c1)C(=O)c1ccccc1C2=O`, the T/C reads like this: (dose: 25.0 mg/kg/injection, schedule: Q01DX005 (ip), vehicle: water) 106 % of control; (dose: 50.0 mg/kg/injection, schedule: Q01DX005 (ip), vehicle: water) 108 % of control; under setting [4], 97 % of control.

With `COc1cccc(C(=O)c2ccccc2C(=O)O)c1`, the T/C under setting [5] was 101 % of control, the T/C under setting [6] is 105 % of control and the T/C under setting [7] is 103 % of control.

On to `Cc1c2oc3c(C)c([N+](=O)[O-])cc(C(=O)NC4C(=O)NC(C(C)C)C(=O)N5CCCC5C(=O)N(C)CC(=O)N(C)C(C(C)C)C(=O)OC4C)c3nc-2c(C(=O)NC2C(=O)NC(C(C)C)C(=O)N3CCCC3C(=O)N(C)CC(=O)N(C)C(C(C)C)C(=O)OC2C)c(N)c1=O` (stereo unspecified), for which the T/C runs as follows: (dose: 0.01 mg/kg/injection, schedule: Q01DX009 (ip), vehicle: Klucel (hydroxypropylcellulose) (HPC)) 90 % of control; (dose: 0.02 mg/kg/injection, schedule: Q01DX009 (ip), vehicle: Klucel (hydroxypropylcellulose) (HPC)) 106 % of control; (dose: 0.04 mg/kg/injection, schedule: Q01DX009 (ip), vehicle: Klucel (hydroxypropylcellulose) (HPC)) 108 % of control; (dose: 0.08 mg/kg/injection, schedule: Q01DX009 (ip), vehicle: Klucel (hydroxypropylcellulose) (HPC)) 120 % of control and 217 % of control; (dose: 0.3 mg/kg/injection, schedule: Q01DX009 (ip), vehicle: Klucel (hydroxypropylcellulose) (HPC)) 218 % of control.

Take `COC(=O)c1cc(=O)c2c(ccc3oc(=O)ccc32)[nH]1`: the T/C is 88 % of control under setting [1], 88 % of control under setting [2] and 90 % of control under setting [8].

`CCC(=O)C(=O)NC(C)C(C)=O` (stereo unspecified): the T/C runs as follows: under setting [1], 99 % of control; under setting [2], 98 % of control; under setting [8], 100 % of control.

In the case of `CCOC(=O)C(=CNc1ccc2c(c1)OCO2)C(=O)OCC`, the T/C by setting is: (dose: 50.0 mg/kg/injection, schedule: Q01DX005 (ip), vehicle: distilled water + Tween-80 + alcohol) 100 % of control; (dose: 100.0 mg/kg/injection, schedule: Q01DX005 (ip), vehicle: distilled water + Tween-80 + alcohol) 95 % of control; (dose: 200.0 mg/kg/injection, schedule: Q01DX005 (ip), vehicle: distilled water + Tween-80 + alcohol) 102 % of control.

As to `CC(=NCc1ccccc1)Nc1ccc(NC(=O)c2ccc(C(=O)Nc3ccc(NC(C)=NCc4ccccc4)cc3)cc2)cc1`, the T/C runs as follows: (dose: 25.0 mg/kg/injection, schedule: Q01DX005 (ip), vehicle: Klucel (hydroxypropylcellulose) (HPC)) 98 % of control; under setting [5], 95 % of control; under setting [6], 94 % of control; under setting [7], 99 % of control.

Turning to `O=[N+]([O-])c1ccc(-c2cn(-c3ccc(Cl)cc3)cn2)cc1`, the T/C reads like this: under setting [9], 96 % of control; under setting [10], 88 % of control; under setting [11], 88 % of control.

On to `CC(=O)Nc1ccc(S(=O)(=O)Nc2ccc3oc(=O)[nH]c3c2)cc1`, for which the T/C by setting is: (dose: 100.0 mg/kg/injection, schedule: Q01DX001 (ip), vehicle: Klucel (hydroxypropylcellulose) (HPC)) 98 % of control; (dose: 200.0 mg/kg/injection, schedule: Q01DX001 (ip), vehicle: Klucel (hydroxypropylcellulose) (HPC)) 93 % of control; (dose: 400.0 mg/kg/injection, schedule: Q01DX001 (ip), vehicle: Klucel (hydroxypropylcellulose) (HPC)) 92 % of control.

On to `CCc1c(O)c(C#N)c2[nH]c3cc(C)c(C)cc3n2c1=O`, for which the T/C under setting [9] is 100 % of control, the T/C under setting [10] was 102 % of control and the T/C under setting [11] was 99 % of control.

Consider `O=C1c2c(O)cccc2-c2nn(CCNCCO)c3ccc(NCCNCCO)c1c23`, for which the T/C is 171 % of control (dose: 3.12 mg/kg/injection, schedule: Q04DX002 (ip), vehicle: water); 183 % of control (dose: 6.25 mg/kg/injection, schedule: Q04DX002 (ip), vehicle: water); 228 % of control and 235 % of control (dose: 12.5 mg/kg/injection, schedule: Q04DX002 (ip), vehicle: water); 184 % of control and 285 % of control and 588 % of control (dose: 25.0 mg/kg/injection, schedule: Q04DX002 (ip), vehicle: water); 88 % of control (dose: 50.0 mg/kg/injection, schedule: Q04DX002 (ip), vehicle: water); 190 % of control under setting [4].

For `CCC1=C2C(=O)c3ccccc3C2=C(C)S(=O)(=O)O1`, the T/C is 109 % of control (dose: 50.0 mg/kg/injection, schedule: Q04DX003 (ip), vehicle: saline with Tween-80) and 86 % of control under setting [3].

With `CC[C@H](CC[C@@H](C)[C@H]1CC[C@H]2[C@@H]3CC=C4C[C@@H](OC(C)=O)CC[C@]4(C)[C@H]3CC[C@]12C)C(C)C`, the T/C (dose: 6.25 mg/kg/injection, schedule: Q01DX009 (ip), vehicle: Klucel (hydroxypropylcellulose) (HPC)) is 99 % of control and 110 % of control; the T/C (dose: 12.5 mg/kg/injection, schedule: Q01DX009 (ip), vehicle: Klucel (hydroxypropylcellulose) (HPC)) was 105 % of control and 107 % of control; the T/C (dose: 25.0 mg/kg/injection, schedule: Q01DX009 (ip), vehicle: Klucel (hydroxypropylcellulose) (HPC)) was 104 % of control and 92 % of control; the T/C (dose: 50.0 mg/kg/injection, schedule: Q01DX009 (ip), vehicle: Klucel (hydroxypropylcellulose) (HPC)) is 98 % of control and 105 % of control; the T/C (dose: 75.0 mg/kg/injection, schedule: Q01DX009 (ip), vehicle: Klucel (hydroxypropylcellulose) (HPC)) was 100 % of control and 92 % of control.

Turning to `CCOc1ccc(Cc2ccc3c(c2)OCO3)cc1C`, the T/C runs as follows: under setting [1], 101 % of control; under setting [2], 108 % of control; under setting [8], 111 % of control.

Turning to `O=C(NC1CCCCC1)OCC1OC(n2cnc3c(=O)[nH]cnc32)C(OC(=O)NC2CCCCC2)C1OC(=O)NC1CCCCC1` (stereo unspecified), the T/C reads like this: (dose: 6.25 mg/kg/injection, schedule: Q01DX005 (ip), vehicle: saline with Tween-80) 98 % of control; (dose: 12.5 mg/kg/injection, schedule: Q01DX005 (ip), vehicle: saline with Tween-80) 90 % of control; (dose: 25.0 mg/kg/injection, schedule: Q01DX005 (ip), vehicle: saline with Tween-80) 90 % of control.

`O=C(Nc1ccc(Cl)cc1)Nc1nnc2nc(C(C(=O)c3ccc(O)cc3O)c3nc4nnc(NC(=O)Nc5ccc(Cl)cc5)n4[nH]c3=O)c(=O)[nH]n12`: the T/C was 103 % of control under setting [9] and 95 % of control under setting [10].

For `CC(C)C1(C(=O)NNC(=O)CCCc2ccc(N(CCCl)CCCl)cc2)OC2(O)CCCCCN2C1=O` (stereo unspecified), the T/C (dose: 6.25 mg/kg/injection, schedule: Q04DX003 (ip), vehicle: Klucel (hydroxypropylcellulose) (HPC)) was 109 % of control; the T/C (dose: 12.5 mg/kg/injection, schedule: Q04DX003 (ip), vehicle: Klucel (hydroxypropylcellulose) (HPC)) is 121 % of control; the T/C (dose: 100.0 mg/kg/injection, schedule: Q04DX003 (ip), vehicle: Klucel (hydroxypropylcellulose) (HPC)) is 184 % of control.

As for `COP(=S)(OC)SCSc1ccc(Cl)cc1`, the T/C (dose: 12.5 mg/kg/injection, schedule: Q01DX009 (ip), vehicle: saline with Tween-80) was 89 % of control and the T/C (dose: 25.0 mg/kg/injection, schedule: Q01DX009 (ip), vehicle: saline with Tween-80) is 91 % of control.

In the case of `CCCCCCCCCCCC[N+]1([O-])CCCCCC1`, the T/C is 100 % of control (dose: 12.5 mg/kg/injection, schedule: Q01DX009 (ip), vehicle: saline); 100 % of control (dose: 25.0 mg/kg/injection, schedule: Q01DX009 (ip), vehicle: saline); 107 % of control and 94 % of control (dose: 50.0 mg/kg/injection, schedule: Q01DX009 (ip), vehicle: saline).

In the case of `N#CSCCSC#N`, the T/C by setting is: (dose: 6.25 mg/kg/injection, schedule: Q04DX002 (ip), vehicle: Klucel (hydroxypropylcellulose) (HPC)) 100 % of control; (dose: 12.5 mg/kg/injection, schedule: Q04DX002 (ip), vehicle: Klucel (hydroxypropylcellulose) (HPC)) 97 % of control.

For the origin of these results see PubChem BioAssay AID330 (DTP/NCI, 2004).
